{
  "source": "patent US8143291B2",
  "about": "“Indole compounds bearing aryl or heteroaryl groups having sphingosine-1-phosphate (S1P) receptor biological activity” (Allergan, Inc., priority 2008, dated 2012)",
  "origin": "cited, not measured here",
  "tested_on": "perfused porcine eyes",
  "conditions": "by altering paracellular permeability, IOVS 45, 2263, 2004",
  "data": [
    {"smiles": "CCCCCCCCCCCCC/C=C/[C@@H](O)[C@@H](N)COP(=O)(O)O", "note": "[S1P, Sphingosine-1-phosphate]", "values": [
      {"measurement": "decrease of outflow facility", "result": "> 30", "unit": "%"}
    ]}
  ]
}
